Consider two molecules from patent US10668043B2, “Potentiated antimicrobial agents” (priority 2014, dated 2020).

One series concerns MRSA 10168. The settings on record: mouse, in vivo.
The subject of a further series is Pseudomonas aeruginosa. In words: MIC measurement in agar solid medium (CLSI). It is filed as cell-based. An excerpt:
(§1) Inhibitory minimum concentration measurement tests are made in a solid agar medium according to international standards in force (CLSI M7-A9 Jan 12 standards): dispersion of the compounds to be tested in a Mueller Hinton gelose. An adaptation relating to the hydrophobicity of compounds and compositions is however necessary to disperse them in the medium: dilution of the compounds in a solvent. The compounds and compositions incorporated in the agar medium can be diluted beforehand in one or more solvents (Tween® 80 diluted with water, tween® 80 diluted with propylene, DMSO diluted with water). The strains are deposited onto the agar surface with a steers apparatus. In the examples, different dissolution methods for products are tested in parallel to circumvent the problems of water/solvent distribution coefficient of the molecules (antimicrobial and potentiator) whereas the bacteria grow only in the aqueous phase. The technical requirement will not intervene in in vivo tests. The same dilution methods can be implemented in a liquid medium (microplates and tubes). The same methodology is implemented with fungi.
MIC measurement: the minimum inhibitory concentration measurement tests are made in an agar solid medium according to international standards in force (CLSI standards), according to the previously defined protocol. The compounds and compositions incorporated in the agar medium can be diluted beforehand in one or more solvents (Tween® 80 diluted with water—3.4 ml Tween for 9.6 ml water—, tween® 80 diluted with propylene 10-3.4 ml Tween for 9.6 ml propylene—, or DMSO diluted with water).
The booster contribution as compared with the MIC of the antibiotic alone is expressed in a (MIC ATB)/(MIC ATB+booster) ratio. Thereby, gains are defined:
MIC 50 gain=(MIC50 of the antibiotic alone)/(MIC50 (antibiotic+booster))
MIC 90 gain=(MIC90 of the antibiotic alone)/(MIC90 (antibiotic+booster))
The tested strains are isolated from various human samples (blood, urine, pulmonary aspirates, etc.). The strains investigated in the following examples are chosen from the strains of the following table: […]

For another series, the system named is Escherichia coli. In words: MIC measurement in agar solid medium (CLSI). In kind it is cell-based.
Text: as §1, with “fungi. MIC measurement: the minimum inhibitory concentration measurement tests are made in an agar solid medium according to international standards in force (CLSI standards), according to the previously defined protocol. […] The booster contribution as compared with the MIC of the antibiotic alone is expressed in a (MIC ATB)/(MIC ATB+booster) ratio. Thereby, gains are defined: […] The tested strains are isolated from various human samples (blood, urine, pulmonary aspirates, etc.). The strains investigated in the following examples are chosen from the strains of the following table: [table] […] The MICs are measured on different strains. Then, the MIC gain is calculated on the strains belonging to the same genus. The MIC gain expresses the following ratio: […]” for “fungi.”

The test system of series [1] is Staphylococcus. The series can be described thus: MIC measurement in agar solid medium (CLSI). It is filed as cell-based.
Text: as §1, with “fungi. MIC measurement: the minimum inhibitory concentration measurement tests are made in an agar solid medium according to international standards in force (CLSI standards), according to the previously defined protocol. […] The booster contribution as compared with the MIC of the antibiotic alone is expressed in a (MIC ATB)/(MIC ATB+booster) ratio. Thereby, gains are defined: […] The tested strains are isolated from various human samples (blood, urine, pulmonary aspirates, etc.). The strains investigated in the following examples are chosen from the strains of the following table: [table] […] The MICs are measured on different strains. Then, the MIC gain is calculated on the strains belonging to the same genus. The MIC gain expresses the following ratio: […]” for “fungi.”

The subject of the next series is E. coli. The series can be described thus: Double dilution test. In kind it is cell-based. From the text: (§2) The double dilution test is a MIC measurement test made on successive dilutions of the 2 products of the composition. […] The summary table expresses for each strain and for each dilution of the booster the measured antibiotic MIC.
(§3) The code enabling the results to be interpreted is the following one: no sign “^+” if the MIC is equivalent with and without booster, a sign “^+” if the value is lower with booster.

In series [2] the test system is Staphylococcus. In words: Double dilution test. In kind it is cell-based. The settings on record: strain 8148.
Text: as §2, §3

Another series deals with strain 08150. The series can be described thus: Post antibiotic effect. In kind it is cell-based.
The next series concerns MRSA. In words: Sepsis model, in vivo test 2. Details: species or system CD1 mice. The settings on record: CIN 32 mg/kg without antibiotic; subcutaneous; count at 24 h. As to the method:
200 μL of a bacterial solution (MRSA) adjusted to 5.108 UFC/ml is injected by the intravenous route (retro-orbital route) to CD1 mice. The treatment is initiated 1 h after the bacteria injection by the subcutaneous route.
At 24 h, the mice are euthanized and a bacterial count is made in the kidney.
Controls: untreated group, group receiving 32 mg/kg cineol without antibiotic (CIN), group receiving 8 mg/kg antibiotic without cineol (AMC8). • (*) p<0.05 vs control, AMC8 and CIN • (£) p<0.05 vs control and CIN • ($) p<0.05 vs control, AMC8, CIN, AMC+CIN 128, AMC+CIN 256

The test system of the next series is strains. In words: MIC of cineol alone, strains not named. It is filed as cell-based. The settings on record: cineol used alone; strains of the etest example.
In series [3] the test system is microorganisms grown in planktonic and biofilm cultures. The settings on record: Hendry et al, J Antimicrob Chemother 2009; cited from earlier work.

Method for MRSA 10168: To Balb/c mice, is injected (Sc.) the antimicrobial product or the antimicrobial+booster mixture.
At different post-injection times, the mice are euthanised, and blood sampled, heparined and centrifuged to extract plasma thereof
Antibacterial effects are measured after 24 h incubation. The successive dilutions enable the antimicrobial effect to be determined and compared with the MIC. The efficient concentration/MIC ratio is thus determined.

With “amoxicillin/clavulanic acid [Augmentin®]”, in the series on MRSA 10168, the “Time spent beyond the MIC” value is reported as below 4 h.
By MIC50 is commonly meant the lowest concentration that inhibits either 50% of growth or 50% of the strains tested, depending on the study. Turning to `CC12CCC(CC1)C(C)(C)O2` [Cineol, cineol], the “MIC 50 of cineol alone” value with Pseudomonas aeruginosa (DMSO) is given as 1%; in the series on Pseudomonas aeruginosa (Tween/prop glyc), above 1%; with Pseudomonas aeruginosa (Tween/water), above 1%; in the series on Pseudomonas aeruginosa (water/water), above 1%; in the series on Escherichia coli (DMSO), above 1%; with Escherichia coli (Tween/prop glyc), above 1%. Besides, the “MIC 50 of cineol alone” value in the series on Escherichia coli (Tween/water), in the series with Escherichia coli (water/water), in the series on Staphylococcus [1] (DMSO), with Staphylococcus [1] (Tween/prop glyc), in the series with Staphylococcus [1] (Tween/water) and in the series with Staphylococcus [1] (water/water) was above 1% each time. Moreover, the “MIC 90 of cineol alone” value is reported as 1% with Pseudomonas aeruginosa (DMSO); above 1% in the series with Pseudomonas aeruginosa (Tween/prop glyc); above 1% in the series with Pseudomonas aeruginosa (Tween/water); above 1% in the series on Pseudomonas aeruginosa (water/water); above 1% in the series with Escherichia coli (DMSO); above 1% in the series on Escherichia coli (Tween/prop glyc). The “MIC 90 of cineol alone” value with Escherichia coli (Tween/water), in the series with Escherichia coli (water/water), with Staphylococcus [1] (DMSO), with Staphylococcus [1] (Tween/prop glyc), in the series with Staphylococcus [1] (Tween/water) and in the series with Staphylococcus [1] (water/water) was above 1% throughout. In addition, the MIC of cineol alone in the series on E. coli (strain 8137), with E. coli (strain 8151), in the series with E. coli (strain 8155), in the series on E. coli (strain 8156), with E. coli (strain ATCC 25922) and in the series with Staphylococcus [2] was above 2.5 µg/mL each time. The number of bacteria with strain 08150 (time 0 h after 16 h contact, Cineol 4 mg/L (AC, where present, at its MIC)) is 2.17E+07; in the series with strain 08150 (time 0 h after 16 h contact, Cineol 16 mg/L (AC, where present, at its MIC)), 2.20E+07; in the series with strain 08150 (time 1 h after 16 h contact, Cineol 4 mg/L (AC, where present, at its MIC)), 4.92E+07; in the series on strain 08150 (time 1 h after 16 h contact, Cineol 16 mg/L (AC, where present, at its MIC)), 3.88E+07; in the series on strain 08150 (time 2 h after 16 h contact, Cineol 4 mg/L (AC, where present, at its MIC)), 5.50E+07; in the series with strain 08150 (time 2 h after 16 h contact, Cineol 16 mg/L (AC, where present, at its MIC)), 6.40E+07. Besides, the number of bacteria in the series on strain 08150 (time 3 h after 16 h contact, Cineol 4 mg/L (AC, where present, at its MIC)) was determined as 3.90E+08; in the series on strain 08150 (time 3 h after 16 h contact, Cineol 16 mg/L (AC, where present, at its MIC)), 2.70E+08; in the series on strain 08150 (time 4 h after 16 h contact, Cineol 4 mg/L (AC, where present, at its MIC)), 3.50E+08; in the series on strain 08150 (time 4 h after 16 h contact, Cineol 16 mg/L (AC, where present, at its MIC)), 4.20E+08; in the series on strain 08150 (time 5 h after 16 h contact, Cineol 4 mg/L (AC, where present, at its MIC)), 5.90E+08; in the series on strain 08150 (time 5 h after 16 h contact, Cineol 16 mg/L (AC, where present, at its MIC)), 5.50E+08. Moreover, the number of bacteria in the series with strain 08150 (time 6 h after 16 h contact, Cineol 4 mg/L (AC, where present, at its MIC)) is 6.00E+08; in the series on strain 08150 (time 6 h after 16 h contact, Cineol 16 mg/L (AC, where present, at its MIC)), 5.90E+08. Besides, the “Mean ± SD log10 UFC/g kidney” value in the series on MRSA was found to be 6.35 ± 0.29 log10 UFC/g kidney. Further, the MIC50 in the series with strains was above 10000 µg/mL. In addition, the MIC of cineole in series [3] is 8000 to 64000 µg/mL.
